Laboratory results reported in patent US11661398B2, “Cellular transport system for transferring a sulfonic acid construct carrying a cargo into the cytoplasm of a cell” (Scientist of Fortune, S.A., priority 2017, dated 2023).
“Also recorded” adds a separate entry of the source.

How the values were obtained:
[1] = tested on: BW25113 ΔleuB; assay: Intracellular release of leucine from sulfobutanoyl-L-leucine, growth on plates; assay type: cell-based, E. coli; settings: 2 mM compound, 0.5 mM taurine
Protocol: (§1) For the experiments relating to the sulfonate based synthetic transport system, unless stated otherwise, growth experiments in selective medium were carried out in sulfur free MS minimal medium (4 mM citric acid, 1 mM MgCl2, 20 mM NH4Cl, 50 mM KH2PO4 and 1×NTA mix (10 μM nitrilotriacetic acid, 3 μM CaCl2, 3 μM FeCl3, 1 μM MnCl2, 0.3 μM ZnCl2, 0.3 μM H3B3, 0.3 μM CrC3, 0.3 μM COCl2, 0.3 μM CuCl2, 0.3 μM Ni2C, 0.3 μM Na2MoO4, 0.3 μM Na2SeO3)) supplemented with 0.5% glucose. MgSO4 (1 mM), MgCl2 (1 mM), L-leucine (0.4 mM), IPTG (0.5 mM), aTc (100 ng mL-1), nicotinic acid (various concentrations), 3-picolylamine (various concentrations) and sulfonates (various concentrations) as indicated in the text. […] Synthesis schemes for sulfobutanoyl-p-nitroanilide and other sulfonates are given below.
It was then tested if sulfobutanoyl-L-leucine can also be hydrolyzed intracellularly by GGT*. Strains BW25113 ΔleuB or BW25113 ΔleuB ΔssuD were transformed either with the empty vector pACT3 or the expression plasmids pACT3/EcGGT_ΔN24_D433N and pACT3/PnGGT_ΔN24_D405N. […] Taurine is taken up exclusively via TauABC and solely desulfonated by TauD. Addition of an excess of taurine should therefore not lead to competition with sulfobutanoyl-L-leucine for the SsuABC transporter and prevent TauD from using sulfobutanoyl-L-leucine as substrate, ensuring that the majority of sulfobutanoyl-L-leucine is hydroluzed by GGT*.

[2] = tested on: TK082[pSsuABC]; assay: Growth of leucine auxotrophic strain in liquid medium; assay type: cell-based, E. coli; settings: liquid MS minimal medium, 0.25 mM compound, pACT3 versus pPnGGT*
[3] = target: T1, PnGGT* (Pseudomonas nitroreducens, UniProt E0D5C2, D405N); assay: Sulfobutanoyl-L-leucine hydrolysis kinetics coupled to branched-chain amino acid kit; assay type: biochemical; settings: 50 mM Tris/HCl (pH 7.0)
T1 sequence (E0D5C2 25-556 D405N limits assumed): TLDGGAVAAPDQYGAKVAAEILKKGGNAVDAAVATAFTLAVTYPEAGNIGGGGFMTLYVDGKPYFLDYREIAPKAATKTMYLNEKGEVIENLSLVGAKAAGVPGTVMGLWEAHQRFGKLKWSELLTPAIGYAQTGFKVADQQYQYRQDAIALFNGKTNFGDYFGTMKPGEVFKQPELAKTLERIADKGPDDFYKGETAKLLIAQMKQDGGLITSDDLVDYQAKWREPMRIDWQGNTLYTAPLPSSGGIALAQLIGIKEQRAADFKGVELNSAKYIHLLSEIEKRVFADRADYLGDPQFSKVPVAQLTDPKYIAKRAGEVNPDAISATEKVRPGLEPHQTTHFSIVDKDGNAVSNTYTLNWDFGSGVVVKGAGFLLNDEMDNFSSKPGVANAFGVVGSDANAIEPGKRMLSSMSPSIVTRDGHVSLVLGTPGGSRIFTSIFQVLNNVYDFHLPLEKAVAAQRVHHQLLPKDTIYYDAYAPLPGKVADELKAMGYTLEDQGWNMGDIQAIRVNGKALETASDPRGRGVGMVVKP
Protocol: (§2) FIG. 32. […] Due to the unknown composition of the kit, absolute quantification of leucine was not possible and the results relating to reaction rates are plotted as changes in absorbance over time. […] (b) Kinetics of PnGGT* P505T were determined with the same substrate concentrations and buffer as for PnGGT*. […] Fitting of the kinetic data was performed with SigmaPlot v.12.2. Dots represent the average of three independent measurements with standard deviations shown as error bars.
(§3) For that, 50 μL of the BCAA reaction mix containing 46 μL BCAA assay buffer, 2 μL BCAA enzyme mix and 2 μL WST substrate mix were pre-incubated with 35 μL BCAA assay buffer and 5 μL purified PnGGT* (final concentration approximately 0.05 mg mL-1) at 37° C. […] The reaction rate of PnGGT* variants was determined as the specific difference in absorption over time (ΔA (450 nm) per minute per mg of purified protein).

[4] = tested on: BW25113 ΔleuB (TK080); assay: Growth on different sulfur sources; assay type: cell-based, E. coli; settings: 1 mM sulfur source, minimal medium, 0.5% glucose, 0.4 mM leucine
Protocol: FIG. 21: Growth of E. coli on sulfonates. Strains TK080 (a; BW25113 ΔleuB) and TK082 (b; BW25113 ΔleuB ΔssuEADCB ΔtauD) were grown in MS minimal medium supplemented with 0.5% glucose, 0.4 mM L-leucine, 1 mM MgCl2 and 1 mM of a sulfur source. TK080 was able to use the majority of the tested sulfur sources with a similar efficiency as sulfate. […] Dots represent the average of three independent measurements with standard deviations shown as error bars.
as §1
The sulfonate transporters SsuABC and TauABC transport a wide variety of sulfonate compounds (Eichhorn et al., 2000) and can thus be exploited for the present synthetic transport system. As such, the uptake and utilization of sulfobutanoyl-L-leucine was assessed. The leucine auxotrophic strain BW25113 ΔleuB was tested for growth in minimal medium supplemented with 0.5% glucose, 0.4 mM leucine, 0.4 mM isoleucine and 1 mM of a sulfur-containing compound as the sole sulfur source.

[5] = tested on: PnGGT* D385Y; assay: Sulfobutanoyl-L-leucine hydrolysis kinetics coupled to branched-chain amino acid kit; assay type: biochemical, Pseudomonas nitroreducens; settings: 50 mM Tris/HCl (pH 7.0), 10-1000 μM substrate
Protocol: as §2, §3

[6] = tested on: PnGGT* P505T; assay: as above; assay type: biochemical, Pseudomonas nitroreducens; settings: 50 mM Tris/HCl (pH 7.0)
Protocol: as §2, §3

[7] = target: T2, PnGGT ΔN24 (Pseudomonas nitroreducens, UniProt E0D5C2); assay: Colorimetric GGT assay in whole cell lysates; assay type: biochemical; settings: whole cell lysate, 4 mM substrate, 50 mM Tris-HCl (pH 9.0), 410 nm
Description: (§4) To test for the desired activity a colorimetric enzyme assay was chosen and the substrate sulfobutanoyl-p-nitroanilide was synthesized for this purpose. Hydrolysis of this colorless substrate by a GGT variant into sulfobutanoic acid and the yellow dye 4-nitroaniline can be quantified photometrically at 410 nm. For that, cytoplasmic GGT variants containing an N-terminal 6×His-tag were first expressed from E. coli (EcGGT ΔN24) and Pseudomonas nitroreducens (PnGGT ΔN24), as well as EcGGT ΔN24 D433N and the corresponding mutant variant PnGGT ΔN24 D405N. Position D405 of PnGGT was identified to fulfill the same function as position D433 of EcGGT by sequence alignment and homology modeling between EcGGT and PnGGT. Then the ability of whole cell lysates containing the respective enzymes was tested to hydrolyze L-glutamic acid γ-(3-carboxy-4-nitroanilide) or sulfobutanoyl-p-nitroanilide.

[8] = target: T3, EcGGT ΔN24 (Escherichia coli, UniProt P18956); assay: Colorimetric GGT assay in whole cell lysates; assay type: biochemical, E. coli; settings: whole cell lysate, 4 mM substrate, 50 mM Tris-HCl (pH 9.0), 410 nm
T3 construct: made in house; host or cells: E. coli (pACT3 plasmid, IPTG induction)
Description: as §4

[9] = target: T4, EcGGT ΔN24 D433N (Escherichia coli, UniProt P18956, D433N); assay: Colorimetric GGT assay in whole cell lysates; assay type: biochemical, E. coli; settings: whole cell lysate, 4 mM substrate, 50 mM Tris-HCl (pH 9.0), 410 nm
T4 construct: made in house; host or cells: E. coli (pACT3 plasmid); assayed in whole cell lysate
Description: as §4

[10] = target: T5, PnGGT ΔN24 D405N (Pseudomonas nitroreducens, UniProt E0D5C2, D405N); assay: Colorimetric GGT assay in whole cell lysates / cell free extracts; assay type: biochemical; settings: cell free extracts of strain TK018, 2 mM substrate (FIG. 22a)
T5 sequence (E0D5C2 with tags, fused parts or gaps D405N): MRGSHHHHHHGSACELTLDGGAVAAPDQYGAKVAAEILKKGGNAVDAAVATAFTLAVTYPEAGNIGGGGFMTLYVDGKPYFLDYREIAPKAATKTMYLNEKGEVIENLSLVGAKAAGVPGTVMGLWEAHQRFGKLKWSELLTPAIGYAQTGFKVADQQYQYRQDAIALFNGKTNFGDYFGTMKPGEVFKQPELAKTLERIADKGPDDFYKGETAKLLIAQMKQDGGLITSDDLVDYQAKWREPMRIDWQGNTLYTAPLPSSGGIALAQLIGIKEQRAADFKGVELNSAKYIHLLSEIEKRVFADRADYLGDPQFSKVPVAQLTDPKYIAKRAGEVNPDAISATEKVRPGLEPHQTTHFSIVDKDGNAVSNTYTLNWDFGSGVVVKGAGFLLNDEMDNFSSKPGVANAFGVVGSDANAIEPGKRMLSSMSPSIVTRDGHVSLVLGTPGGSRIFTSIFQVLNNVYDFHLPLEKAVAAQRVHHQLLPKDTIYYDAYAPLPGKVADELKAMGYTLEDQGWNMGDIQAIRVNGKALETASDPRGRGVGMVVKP
Description: FIG. 22: Identification of GGT* activity and refactoring of the ssuABC operon. […] The release of 4-nitroaniline was quantified by measuring the absorption at 410 nm. (b) Plasmid map of the three-dimensional RBS-library for refactoring the ssuABC operon using 144 RBS variants per gene. RBS library sequences are underlined. Arrows point towards the final RBS sequences observed in plasmid pSsuABC. […] (e) Growth of strain TK088[pSsuABC]transformed with the empty vector pACT3 (black circles) or plasmid pPnGGT* (white circles) in liquid MS minimal medium supplemented with 0.5% glucose, 1 mM MgSO4, 0.4 mM L-leucine, 0.5 mM IPTG, 100 ng ml^−1 aTc and 0.5 mM sulfobutanoyl-L-histidine. Bars and dots from panels (a), (d) and (e) represent the average of three independent measurements with standard deviations shown as error bars.
To test for the desired activity a colorimetric enzyme assay was chosen and the substrate sulfobutanoyl-p-nitroanilide was synthesized for this purpose. Hydrolysis of this colorless substrate by a GGT variant into sulfobutanoic acid and the yellow dye 4-nitroaniline can be quantified photometrically at 410 nm. For that, cytoplasmic GGT variants containing an N-terminal 6×His-tag were first expressed from E. coli (EcGGT ΔN24) and Pseudomonas nitroreducens (PnGGT ΔN24), as well as EcGGT ΔN24 D433N and the corresponding mutant variant PnGGT ΔN24 D405N. […]

[11] = target: T2, PnGGT ΔN24; assay: Kinetic measurements with purified PnGGT ΔN24; assay type: biochemical; settings: purified enzyme, 50 mM Tris-HCl (pH 9.0)
Protocol: (§5) For the experiments relating to the sulfonate based synthetic transport system, purification of PnGGT ΔN24 and PnGGT ΔN24 D405N containing an N-terminal 6×His-tag was performed according to previous reports (Van Dyke et al., 1992) using Ni-NTA Superflow (Qiagen, Hilden, Germany). For kinetic studies, PnGGT variants were purified with the aid of the 6×His-tag located at the N-terminal end of the large subunit following the same procedure. To exchange the buffer, purified proteins were dialyzed against 50 mM Tris/HCl (pH 7.0).
(§6) To determine the kinetic parameters of PnGGT ΔN24 and PnGGT ΔN24 D405N the purified enzymes were preincubated in 50 mM Tris-HCl (pH 9.0). To start the reaction, varying concentrations of the substrates L-glutamic acid γ-(3-carboxy-4-nitroanilide) or sulfobutanoyl-p-nitroanilide were added to the mixtures. The results were evaluated using GraphPad Prism (GraphPad Software, La Jolla, Calif., USA).

[12] = target: T5, PnGGT ΔN24 D405N; assay: Kinetic measurements with purified PnGGT ΔN24 D405N; assay type: biochemical; settings: purified enzyme, 50 mM Tris-HCl (pH 9.0)
Protocol: as §5, §6

Row | Compound | growth with compound as leucine source ([1]; expressing EcGGT ΔN24 D433N) | growth with compound as leucine source ([1]; expressing PnGGT ΔN24 D405N) | growth with compound as leucine source ([1]; pACT3 empty vector control) | growth with compound as sole leucine source [2] | K value relative to K value with sulfobutanoyl-p-nitroanilide [3] | growth with compound as sole sulfur source [4] | improvement of Vmax over PnGGT* [5] [fold] | increase in Vmax in comparison to PnGGT* [6] [%] | reduction in KM in comparison to PnGGT* [6] [%] | hydrolysis of substrate [7] | hydrolysis of substrate [8] | hydrolysis of substrate [9] | reactivity of PnGGT* to substrate [10] | Km [11] [mM] | Vmax [11] [µmol/min/mg] | kcat [11] [s⁻¹] | Km [12] [mM] | Vmax [12] [µmol/min/mg] | kcat [12] [s⁻¹]
1 | CC(C)C[C@H](NC(=O)CCCS(=O)(=O)O)C(=O)O [sulfobutanoyl-L-leucine] | slower growth | grows best | weak growth | only grew when cells were synthesizing PnGGT* | approximately three times higher | comparable to growth on other sulfonates; also recorded: comparable efficiencies | 1.55 | 27 | 46 |  |  |  |  |  |  |  |  |  | 
2 | N[C@@H](CCC(=O)Nc1ccc([N+](=O)[O-])c(C(=O)O)c1)C(=O)O [γ-Glu-p-nitroanilide, L-glutamic acid γ-(3-carboxy-4-nitroanilide), reference compound] |  |  |  |  |  |  |  |  |  | able to hydrolyze | able to hydrolyze | still had detectable activity | no longer possesses significant reactivity | 0.105 | 34.94 ± 0.47 | 34.5 | 6.5 | 1.79 ± 0.61 | 1.8
